Earlier results in patent US6265392A, “Low oxygen content compositions of 1α, 25-dihydroxycholeclciferol” (Abbott Laboratories, priority 2000, dated 2001).

How the values were obtained:
[1] = free molecules and other reactive forms of oxygen; in solution
[2] = tested on: intestinal absorption of calcium and phosphorous; conditions: in vivo
[3] = tested on: renal osteodystrophy, hypoparathyroidism, osteomalacia, osteoporosis, hepatic osteodystrophy, vitamin D-resistant rickets, vitamin D-dependent rickets …; conditions: children and adults; literature

SMILES: C=C1/C(=C\C=C2/CCC[C@]3(C)[C@@H]([C@H](C)CCCC(C)(C)O)CC[C@@H]23)C[C@@H](O)C[C@@H]1O [1α,25-dihydroxycholecalciferol]
- Solubility in organic solvents (organic solvents): soluble in organic solvents
- Solubility in water (water): practically insoluble in water
- Sensitivity to oxygen [1]: sensitive to the presence of oxygen
- Effect on intestinal absorption of calcium and phosphorous [2]: stimulates intestinal absorption of calcium and phosphorous
- Treatment outcome [3]: successful treatment
